Key:
[1] = tested on: M2-induced THP-1 macrophages; test: Secreted CCL18 and IL-1β in THP-1 supernatants by ELISA; format: cell-based, human
Protocol: FIGS. 6A-6D show graphical data representative of various marker levels measured from M2-induced THP-1 macrophages treated with different concentrations of drugs for 48 hours (FIGS. 6A and 6B) or for 2 hours, then displaced with fresh medium and cultured for the remaining 46 hours (FIGS. 6C and 6D). In both cases, cell supernatants were collected and secreted CCL18 protein and IL-1β was detected by ELISA.
Further, to ensure that the above mRNA analyses accurately reflected the levels of anti-inflammatory cytokines produced by IL-4, IL-6 plus IL-13 stimulated THP-1 cells, the concentrations of CCL18 and IL-1β polypeptides in the THP-1 supernatants were quantitated by ELISA assay.
CCL18 and IL-1β were quantified in induced THP-1 cell supernatants using a human DuoSet ELISA Development System (R&D Systems Europe, Abingdon, UK: #DY394-05) and an IL-1 beta Human ELISA Kit (Thermo Fisher Scientific, Waltham, MA; #BMS224-2) as described by manufactures. BALF samples were analyzed for mouse IFN-γ using ELISA MAX™ Deluxe (Biolegend, San Diego, CA; #430804).
Additionally, cell supernatants were collected and secreted CCL18 protein was detected by ELISA.

BM-induced mice = tested on: BM-induced mice
Protocol: Studies were also performed to determine if macrophages in pulmonary fibrotic lungs might be specifically targeted with folate-linked drugs in vivo. […] (The BM model is widely regarded to be helpful in terms of enabling mechanistic investigations relevant to fibrogenesis in an in vivo context.)
More specifically, eight-week-old C57BL6 male mice from Charles River (average weight 22 g to 25 g) were housed under pathogen-free conditions at room temperature (22° C.) under a 12 hours light-dark cycle. Mice were placed on a folate deficient chow (Envigo Teklad Global Rat Food Pellets) for 1 week prior to the BM or PBS instillation. Fresh water and folate-deficient diet were freely available. All animal procedures were approved by the Purdue Animal Care and Use Committee in accordance with National Institute of Health guidelines.
Thereafter, the mice were anesthetized with ketamine/xylazine and the necks of the mice were shaved using hair remover lotion and then sterilized with 70% alcohol. A small incision was made on the neck to visualize the trachea. Mice were positioned at a 75-degree angle and injected intratracheally with 100 μL sterile PBS or BM (Cayman Chemicals, Ann Arbor, MI; #13877) dissolved in PBS (0.75 mg/kg) using a 1 cc syringe with 26 G needle. Body weights were monitored every other day throughout the experiment.
Lobes of the right lung collected above were weighed, placed in a pressure-tight vial (Supelco Inc., Bellefonte, PA; #27003), and hydrolyzed with 6N HCl (10 ml/g, v/w) in a sand bath at 120° C., for 3.5 hours. The hydrolyzed solution was cooled at 4° C., for 15 min and transferred to a 1.5 ml Eppendorf tube prior to centrifugation at 12,000 rcf for 15 min at 4° C. Supernatant was carefully collected, aliquoted and used for hydroxyproline (HYP) analysis.
For the subsequent HYP analysis, 10 μl of sample was transferred into a 96-well plate and neutralized with 10 μl of 5.3 M sodium hydroxide solution. Isopropanol ([…]) was then added to each well followed by 20 μl of oxidation buffer and the mixture was incubated on a shaker at room temperature for 5 min. Analytical reagent (260 μl) was added, and the plate was incubated on a shaker at room temperature for 30 seconds and incubated immediately at 60° C., for 25 min. The absorbance was measured at 560 nm (A560) within 15 min. All reagents were prepared according to a previously reported protocol.
For histological analysis of the lung sections, fixed lungs (see above) were embedded in paraffin, sectioned and stained with hematoxylin-eosin (H&E), Masson's trichrome or F3 (anti-mouse FRβ antibody). Tissue sections were examined in a blinded manner by a licensed pathologist. More than 90×10^6 cells were quantified per section using Aperio-Image Scope (Leica Biosystems, Wetzlar, DE).
For this, BM-treated mice were intravenously injected every other day beginning on day 10 with either vehicle (3% DMSO in PBS) or Compound 1B (see FIG. 8A). […] In BM-induced experimental pulmonary fibrosis in mice, inflammation is known to persist for about 9-10 days after BM installation. Because, inflammation to fibrosis switch happens in this model approximately day 9 to day 14, and anti-inflammatory markers start appearing at about day 10, dosing began on day 10 (FIG. 8A).
Two doses were given every other day till day 21. The individual doses on a day are separated by 6 hours to prevent any “tolerance” to TLR agonists. Mice were then sacrificed on day 21 and subjected immediately to bronchoalveolar lavage followed by resection of the lungs for immunohistochemistry and quantitation of collagen and hydroxyproline.

[2] = tested on: M2-induced THP-1 macrophages; test: Reprogramming of M2-polarized THP-1 macrophages, marker mRNA by qPCR; format: cell-based, human; details: 48 hours incubation, FIGS. 3A-3F, compared with nontargeted Compound 1A
[3] = tested on: M2-induced human monocyte-derived macrophages; test: Reprogramming of M2-induced human monocyte-derived macrophages with FA-glucosamine competition; format: cell-based; details: 100 nM, 2+46 hours
Protocol: Arg1 (FIG. 19A), CD206 (FIG. 19B) and CD163 (FIG. 19C), and protein levels of secreted anti-inflammatory CCL18 (FIG. 19D) and proinflammatory cytokines, CXCL10 (FIG. 19E) and IL-6 (FIG. 19F) (n=3, technical replicates) were then determined. Changes in both sets of cytokines were inhibited by blockade of unoccupied folate receptors with excess FA-glucosamine (2+46 hours, competition).

[4] = continuous incubation 48 hours, ELISA

Structure (SMILES): CCCCc1nc2c(N)nc3ccccc3c2n1CC(C)(C)OC(=O)OCCSSCC(NC(=O)CCC(NC(=O)c1ccc(NCc2cnc3nc(N)[nH]c(=O)c3n2)cc1)C(=O)O)C(=O)O (centres unmarked) [Compound 1B]
- secreted CCL18 polypeptide [1, 4]: reductions
- secreted IL-1β polypeptide [1, 4]: reductions
- reduction of secreted CCL18 and IL-1β, comparison of 1B with 1A ([1]; drug exposure limited to 2 hours, then 46 hours fresh medium): superior
- order of efficacy on lung hydroxyproline content (BM-induced mice; 0, 1, 3, or 10 nmol/mouse, day 21): 10 nmol/mouse>3 nmol/mouse>1 nmol/mouse>0 nmol/mouse
- lung histology with rising dose (BM-induced mice; 0, 1, 3, or 10 nmoles): lung histology improved
- weight loss across doses (BM-induced mice; 0, 1, 3, or 10 nmoles every other day from day 10): no difference in weight loss
- response in lung sections (DAPI, anti-F4/80, anti-CD206 staining) (BM-induced mice; healthy and fibrotic lungs): robust anti-fibrotic and proinflammatory response
- collagen stain, Masson's trichrome (BM-induced mice; tail vein injection, treatment from day 10): strongly suppressed
- lung architecture, H&E staining (BM-induced mice; treatment from day 10): resembles that of healthy mice
- M2 to M1 marker changes, magnitude of impact [2]: somewhat reduced
- downregulation of biomarkers with excess FA-glucosamine (competitor) [3]: blocked
